Data as given in patent US20250235462A1, “NOVEL CAPSID ASSEMBLY INHIBITORS” (AM SCIENCES INC, priority 2021, published 2025).
Like-named read-outs stand apart in the source and are kept apart here.

Assays:
[1] = target: Protein (capsid assembly) (Hepatitis B virus genotype D subtype ayw, UniProt P03146); experiment: Protein inhibition (capsid assembly inhibition), Table 1; assay type: biochemical; conditions: for inhibition at 30 µM: read-out: Protein % inhibition rate (@30 μM)
intracellular HBV DNA = experiment: Real-time PCR for intracellular HBV DNA in HepAD38 cells; assay type: cell-based, hepatitis B virus (HBV); conditions: treated for 65 hours, intracellular HBV DNA by real-time PCR
HepAD38 cells = experiment: Cell viability assay (EZ-Cytox) in HepAD38 cells; assay type: cell-based; conditions: 65 hours of treatment
Protocol: (§1) HepAD38 cells were cultured for 2 days in Dulbecco's Modified Eagle's medium (Welgene, LM001-05) supplemented with 10% FBS without tetracycline. The cells were seeded in 48-well culture plates (1×10^5 cells/well) and treated with each compound at five concentrations (0 μM (0.8% DMSO as a control), 33 μM, 50 μM, 66 μM, and 100 μM). After 65 hours of treatment, viability was measured using EZ-Cytox cell viability assay kit (Daeil Lab Service) according to the manufacturer's instructions. The absorbance was measured at 450 nm using a spectrophotometer (Spark, Tecan). Here, NVR-3-778 (denoted as NVR) was used as a positive control.

[2] = Cell viability assay (EZ-Cytox) in HepAD38 cells; assay type: cell-based; conditions: human, 65 hours of treatment; for CC50 at 65 h: read-out: Cytotoxicity CC50; for viability at 65 h, 100 µM: read-out: Cytotoxicity % Livability (@100 μM)
Protocol: as §1

[3] = NVR value of the same run in brackets, read-out: Protein EC50
[4] = Hepatitis B virus, HePAD38, 65 h

Sequence of Protein (capsid assembly) (P03146 whole entry): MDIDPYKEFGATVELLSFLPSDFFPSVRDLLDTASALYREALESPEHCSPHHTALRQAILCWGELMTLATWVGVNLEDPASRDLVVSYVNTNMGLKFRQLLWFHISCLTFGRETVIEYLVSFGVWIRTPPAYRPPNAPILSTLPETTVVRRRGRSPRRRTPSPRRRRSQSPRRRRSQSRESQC

| SMILES | Protein % inhibition rate (@30 μM) ([1]; @30 μM) [%] | EC50 [1, 3] [nM] | IC50 (intracellular HBV DNA) [nM] | CC50 (HepAD38 cells; read-out: Cytotoxicity CC50) [nM] | inhibition at 30 µM ([1]; @30 μM) [%] | IC50 (intracellular HBV DNA; [4]) [nM] | CC50 at 65 h [2] [nM] | viability at 65 h, 100 µM [2] [%] | EC50 [1] [nM] | Cytotoxicity % Livability (@100 μM) (HepAD38 cells; @100 μM) [%] |
| --- | --- | --- | --- | --- | --- | --- | --- | --- | --- | --- |
| O=C(Nc1ccc(F)c(Cl)c1)N(Cc1nnc2n1CCOC2)c1ccc2c(c1)OCO2 [Example 4, 1-(Benzo[d][1,3]dioxol-5-yl)-3-(3-chloro-4-fluorophenyl)-1-((6,8-dihydro-5H-[1,2,4]triazolo[3,4-c][1,4]oxazin-3-yl)methyl)urea] | 84 | 6800 | 250 | > 100000 |  |  |  |  |  |  |
| COc1ccc(N(Cc2nnc3n2CCCC3)C(=O)Nc2ccc(F)c(Cl)c2)cc1 [Example 43, 3-(3-Chloro-4-fluorophenyl)-1-(4-methoxyphenyl)-1-((5,6,7,8-tetrahydro-[1,2,4]triazolo[4,3-a]pyridin-3-yl)methyl)urea] |  | 3300 |  |  | 96.2 | 790 | > 100000 | 103 |  |  |
| Cc1cccc(NC(=O)N(Cc2nnc3n2CCCCC3)c2ccc3c(c2)OCO3)c1 [Example 1, 1-(Benzo[d][1,3]dioxol-5-yl)-1-((6,7,8,9-tetrahydro-5H-[1,2,4]triazolo[4,3-a]azepin-3-yl)methyl)-3-m-tolylurea] |  |  |  |  | 72 | 20 | > 100000 | 95 | 1300 |  |
| COc1ccc(N(Cc2nnc3n2CCOCC3)C(=O)Nc2ccc(F)c(Cl)c2)cn1 [Example 40, 3-(3-Chloro-4-fluorophenyl)-1-(6-methoxypyridin-3-yl)-1-((5,6,8,9-tetrahydro-[1,2,4]triazolo[4,3-d][1,4]oxazepin-3-yl)methyl)urea] |  | 1500 |  |  | 82.8 | 84 | > 100000 | 88.6 |  | 100.3 |
| COc1ccc(N(Cc2nnc3n2CCCCC3)C(=O)Nc2ccc(F)c(Cl)c2)cn1 [Example 44, 3-(3-Chloro-4-fluorophenyl)-1-(6-methoxypyridin-3-yl)-1-((6,7,8,9-tetrahydro-5H-[1,2,4]triazolo[4,3-a]azepin-3-yl)methyl)urea] |  | 1400 |  |  | 82 | 50 | > 100000 | 103 |  |  |
| COc1ccc(N(Cc2nnc3n2CCOCC3)C(=O)Nc2ccc(F)c(Cl)c2)cc1 [Example 27, 3-(3-Chloro-4-fluorophenyl)-1-(4-methoxyphenyl)-1-((5,6,8,9-tetrahydro-[1,2,4]triazolo[4,3-d][1,4]oxazepin-3-yl)methyl)urea] |  | 2300 |  |  | 65 | 32 | > 100000 | 91 |  |  |
